Laboratory results: US20110183336A1, “Method to Predict Responsiveness of Breast Cancer to Polyamine-Type Chemotherapy” (THE REGENTS OF THE UNIVERSITY OF CALIFORNIA, priority 2007, published 2011)

Tests used:
Assay in all cases: Cell growth inhibition assay (Cell Titer Glo)
Type in all cases: cell-based, human
[1] = system: S1; settings: S1, HMEC, 72 h
Description: (§1) Cell culture: Breast cell lines were obtained from the ATCC and from collections developed in the laboratories of Drs. Steve Ethier and Adi Gazdar.
(§2) Cell growth inhibition assay and data analysis: Cells were plated at proper density in 96-well plates such that they would remain in log growth at the end of assay time. The cells were allowed to attach overnight before being exposed to CGC-11047 for 72 h. Drugs were dissolved in water as 100 mM stock. For the dose response study, a set of 9 doses from 5×10^−3 to 1.3×10^−8 M (final concentration) in 1:5 serial dilution were added in triplicate wells. The final DMSO concentration in the treated well was 0.3% or less. The cell growth was determined using Cell Titer Glo (CTG) assay (CellTiter-Glo Luminescent Cell Viability Assay, Promega, Madison, Wis.), with slight modification form manufacturer's protocol, at day 0 (time when drug was added) and at day 3 of drug exposure. Briefly, CTG reagent was diluted with PBS (1:1, volume: volume) and the culture media was removed from the 96-well plate prior to adding 50 μl per well of the diluted CTG reagent. Luminescence from the assay was recorded using BIO-TEK FLx800.
(§3) Data calculations were made according to the method described by the NCI/NIH DTP Human Tumor Cell Line Screen Process (http://dtp.nci.nih.gov/branches/btb/ivclsp.html) and as described previously (Monks, A et al., JNCI 83:757-766, 1991). The percent growth curve is calculated as [(T−T0)/(C−T0)]×100, where T0 is the cell count at day 0, C is the vehicle control (e.g. 0.3% DMSO without drug) cell count at day 3, and T is the cell count at the test concentration. The GI50 and TGI value are determined as the drug concentration that results in a 50% and 0% growth at 72 h drug exposure. LC50 is calculated as [(T−T0)/T0]×100=−50, when T<T0.

[2] = system: SUM149PT; settings: Basal B, 72 h
Description: as §1, §2, §3

[3] = system: HCC1954; settings: HCC1954, Basal A, 72 h
Description: as §1, §2, §3

[4] = system: 600MPE; settings: Luminal, 72 h
Description: as §1, §2, §3

[5] = system: MDAMB157; settings: MDAMB157, Basal B, 72 h
Description: as §1, §2, §3

[6] = system: HCC3153; settings: HCC3153, Basal A, 72 h
Description: as §1, §2, §3

[7] = system: UACC812; settings: UACC812, Luminal, 72 h
Description: as §1, §2, §3

[8] = system: ZR751; settings: ZR751, Luminal, 72 h
Description: as §1, §2, §3

[9] = system: HCC1143; settings: HCC1143, Basal A, 72 h
Description: as §1, §2, §3

[10] = system: MDAMB468; settings: MDAMB468, Basal A, 72 h
Description: as §1, §2, §3

[11] = system: SUM52PE; settings: Luminal, 72 h
Description: as §1, §2, §3

[12] = system: BT483; settings: BT483, Luminal, 72 h
Description: as §1, §2, §3

[13] = system: CAMA1; settings: CAMA1, Luminal, 72 h
Description: as §1, §2, §3

[14] = system: HCC1806; settings: HCC1806, Basal A, 72 h
Description: as §1, §2, §3

[15] = system: MCF10F; settings: N, Basal A, 72 h
Description: as §1, §2, §3

[16] = system: HCC1937; settings: HCC1937, Basal A, 72 h
Description: as §1, §2, §3

[17] = system: MCF10A; settings: N, Basal B, 72 h
Description: as §1, §2, §3

[18] = system: HCC1428; settings: HCC1428, Luminal, 72 h
Description: as §1, §2, §3

[19] = system: T4; settings: T4, Basal B, 72 h
Description: as §1, §2, §3

[20] = system: SKBR3; settings: SKBR3, Luminal, 72 h
Description: as §1, §2, §3

[21] = system: LY2; settings: LY2, Luminal, 72 h
Description: as §1, §2, §3

[22] = system: ZR75B; settings: Luminal, 72 h
Description: as §1, §2, §3

[23] = system: HCC70; settings: HCC70, Basal A, 72 h
Description: as §1, §2, §3

[24] = system: 184A1; settings: 184A1, HMEC, 72 h
Description: as §1, §2, §3

## CCNCCCNC/C=C\CNCCCNCC [CGC-11047]
[1]; Homo sapiens
  GI50: 0.8 µM
[1]
  TGI: 3000 µM
[2]
  TGI: 800 µM
[2]; Homo sapiens
  GI50: 2 µM
[3]
  TGI: 8 µM
[3]; Homo sapiens
  GI50: 1 µM
[4]; Homo sapiens
  GI50: 2 µM
[4]
  TGI: 2000 µM
[5]; Homo sapiens, MDA-MB-157
  GI50: 200 µM
[5]
  TGI: 1000 µM
[6]
  TGI: 8 µM
[6]; Homo sapiens
  GI50: 1.3 µM
[7]; Homo sapiens, UACC-812
  GI50: 21 µM
[7]
  TGI: 300 µM
[8]; Homo sapiens, ZR-75-1
  GI50: 13 µM
[8]
  TGI: 800 µM
[9]
  TGI: 320 µM
[9]; Homo sapiens
  GI50: 2 µM
[10]; Homo sapiens, MDA-MB-468
  GI50: 0.5 µM
[10]
  TGI: 2000 µM
[11]; Homo sapiens
  GI50: 10 µM
[11]
  TGI: 300 µM
[12]
  TGI: 1300 µM
[12]; Homo sapiens, BT-483
  GI50: 900 µM
[13]
  TGI: 1100 µM
[13]; Homo sapiens, CAMA-1
  GI50: 350 µM
[14]
  TGI: 330 µM
[14]; Homo sapiens
  GI50: 0.6 µM
[15]; Homo sapiens, MCF-10F
  GI50: 100 µM
[15]
  TGI: 1100 µM
[16]
  TGI: 300 µM
[16]; Homo sapiens
  GI50: 0.8 µM
[17]; Homo sapiens, MCF-10A
  GI50: 200 µM
[17]
  TGI: 3300 µM
[18]
  TGI: 300 µM
[18]; Homo sapiens
  GI50: 1 µM
[19]; Homo sapiens
  GI50: 2 µM
[19]
  TGI: 800 µM
[20]; Homo sapiens, SK-BR-3
  GI50: 5000 µM
[20]
  TGI: >5000 µM
[21]; Homo sapiens
  GI50: 1300 µM
[21]
  TGI: 3000 µM
[22]; Homo sapiens, ZR-75B
  GI50: 200 µM
[22]
  TGI: 2000 µM
[23]
  TGI: 0.53 µM
[23]; Homo sapiens
  GI50: 0.4 µM
[24]
  TGI: 220 µM
[24]; Homo sapiens
  GI50: 2 µM
